Laboratory results taken from patent US20240376484A1, “TRANSFORMING CANNABACEAE CELLS” (Cibus US LLC, priority 2021, published 2024).

Assays:
cannabis EAs [1] = experiment: Regeneration of non-transformed cannabis EAs on different SIMs, number of meristems per explant; type: cell-based; settings: added to SIM with TDZ
Source text: Various experiments were directed to testing different culture media and different concentrations of components of the culture media, such as SIMs with different TDZ concentrations. […] Some experiments were directed to testing different SIMs on cannabis EAs and with different light conditions. For example, the seeds were sterilized and imbibed, and the EAs were extracted. In some experiments, the EAs were not transformed, and between 40 and 50 EAs were regenerated on each different SIMs. In further experiments, a subset of the EAs were plated on an SIM without plant growth regulators, such as TDZ, and the remaining EAs were plated on an SIM with 10 mg/L TDZ, with different groups of each subset being exposed to different light conditions.
The images 1680, 1681, 1683, 1684 show resulting explants regenerated in SIM with 1 mg/L TDZ, 2.5 mg/L TDZ, 5 mg/L TDZ, and 10 mg/L TDZ, respectively.
FIG. 16B is a graph illustrating the explants regenerated in the different SIMs as previously described by FIG. 16A and the number of resulting meristems.
In some experiments, additional TDZ concentrations were tested and different combinations of components in the SIM were tested.

cannabis EAs [2] = experiment: Regeneration of cannabis EAs on SIM with 10 mg/L TDZ under different light conditions; type: cell-based; settings: for explants with 3+ meristems: 10 mg/L TDZ
Source text: Various experiments were directed to testing different culture media and different concentrations of components of the culture media, such as SIMs with different TDZ concentrations. […] Based on various experiments, it is believed that cannabis plants have strong apical dominance, and breaking the apical dominance will increase transformation efficiency and result in more transgenic events. […] Some experiments were directed to testing different SIMs on cannabis EAs and with different light conditions. For example, the seeds were sterilized and imbibed, and the EAs were extracted. In some experiments, the EAs were not transformed, and between 40 and 50 EAs were regenerated on each different SIMs. In further experiments, a subset of the EAs were plated on an SIM without plant growth regulators, such as TDZ, and the remaining EAs were plated on an SIM with 10 mg/L TDZ, with different groups of each subset being exposed to different light conditions. Tables 2 and 3 summarize example media and light conditions:
The B, G, R values in Table 3 include blue, green, and red light values, along with the intensity of the light.
FIGS. 16F and 16G are graphs illustrating the results of the different light conditions on the number of meristems per explant in cultures without plant growth regulators (FIG. 16F) and with 10 mg/L TDZ (FIG. 16G). […] For example, around half of the 10 mg/L TDZ had multiple meristems, with the light II conditions resulting in 40% explants with 3+ meristems, […] explants with 3+ meristems, and light I conditions resulting in 12% explants with 3+ meristems.

Molecule	impact of SIM additive on regeneration (cannabis EAs [1])	share of explants with multiple meristems (cannabis EAs [2]; 10 mg/L TDZ in SIM, FIG. 16G)	explants with 3+ meristems (cannabis EAs [2]; light I conditions) [%]	explants with 3+ meristems (cannabis EAs [2]; light II conditions) [%]	explants with 3+ meristems (cannabis EAs [2]; light II conditions (printed a second time)) [%]
O=C(O)Cc1c[nH]c2ccccc12 [IAA, indoleacetic acid]	did not have a significant positive impact				
O=C(Nc1ccccc1)Nc1cnns1 [TDZ, thidiazuron]		around half	12	40	24
Adenine Hemisulfate	did not have a significant positive impact				
